Experimental data from patent EP0173944A2, “Enhanced inhibition of yeast cell growth” (MILES INC., priority 1984, dated 1986).
Where two headings read alike, the source gives them in different places. *1 amine or outer side, *2 acyl side, *3 side chain or, on linkers, in order; H or OH if unused. Where a SMILES comes first, the peptide text is derived from it. Bridges are numbered along the chain shown (N, C = ends). Roman numbers before positions name the chains, in order. [ ]: non-standard residue; d: D form. Actinocin(9to1) = Cc1c2oc3c(C)ccc(C(=O)[*:1])c3nc-2c(C(=O)[*:2])c(N)c1=O; NMeV = CN[C@H](C(=O)O)C(C)C; Sar = CNCC(=O)O

What was measured:
[1] = system: Saccharomyces cerevisiae strain S288C; assay: Filter disc zone-of-inhibition test of yeast growth with or without PBN in the agar overlay; type: cell-based; conditions: for inhibition of yeast growth in relation to the carbon source: glycerol or glucose as the carbon source; for Area of Zone of Inhibition, Control / effect on yeast growth, control sample: no PBN; for Area of Zone of Inhibition, Control / Area of Zone of Inhibition, PBN (4.8 A260 units): 30°C, 48 hours; for Area of Zone of Inhibition, PBN (4.8 A260 units): with PBN 4.8 A260 units; for Area of Zone of Inhibition: rifampicin 2.5 mg/disc; for effect on yeast growth, control sample / effect on yeast growth, PBN-containing sample: kanamycin 5.0, streptomycin 2.5, chloramphenicol 0.25 mg/disc, data not shown in Table 1; for effect on yeast growth, PBN-containing sample: with PBN
Protocol: (§1) A convenient method for ascertaining the inhibition of growth of yeast cells is as follows. A sample of yeast cells (about 10 7 cells) from a viable overnight culture is added to a molten agar-containing growth medium to which has been added the desired amount of PBN. The resulting suspension is mixed rapidly and then poured onto an agar plate containing a suitable growth medium. The molten agar is allowed to solidify and sterile filter discs are placed on the surface. The solution of antibiotics to be tested are then pipetted onto the discs (50 microliters per disc). The plates are incubated and "read" for antibiotic sensitivity as determined by the zone of inhibition around the disc.
(§2) Saccharomyces cerevisiae strain S288C was grown for 16 hours at 30°C in a liquid medium consisting of 1% (w/v) yeast extract, 2% (w/v) peptone, and 2% (w/v) glucose (YPD medium). One drop of cell suspension from this culture (about 5 x 10^6 to about 1 X 10 ^7 cells) was added to each of 2 tubes containing 3 ml of 0.7% agar, 1% yeast extract, 2% peptone, 2% glycerol (or alternatively 2% glucose as a carbon source) and 0.25 ml of 5 M NaCl maintained at 45-50°C to prevent the agar from solidifying. One tube contained., in addition to the above, 0.5 ml of PBN solution (4.8 A260 units) prepared as described above. The other tube served as a control. The tube contents were mixed rapidly and poured onto a Petri plate containing 25 ml of 2% agar, 1% yeast extract, 2% peptone, and 2% glycerol (YPG medium). After the agar had solidified, sterile filter disks (0.5 inch diameter) were placed on the surface of the agar and solutions of various antibiotics to be tested were pipetted onto the disks. The plates were incubated at 30°C for 48 hours and the inhibition of growth was determined by measuring the area of a zone of clearing formed around the discs (minus the area of the disc).
The procedure described in Example I was repeated with Saccharomyces cerevisiae strain S288C except that increasing amounts of PBN were used. The rifampicin concentration on the discs was maintained at 2.5 mg/disc throughout.

[2] = system: Candida albicans (ATCC 10231); assay: as above; type: cell-based
Protocol: as §1, §2
The procedure described in Example I was repeated with Candida albicans (ATCC 10231). Inhibition of growth of this organism by G-418, rifampicin, cycloheximide and actinomycin D in the presence and absence (control) of PBN was determined.

[3] = YPD medium used for plating, 0.5 mg/disk in dimethylsulfoxide
[4] = no PBN, G-418 5.0, rifampicin 2.5, cycloheximide 0.5, actinomycin D 0.5 mg/disk
[5] = with PBN 3.0 A260 units per plate in YPD medium, G-418 5.0, rifampicin 2.5, cycloheximide 0.5, actinomycin D 0.5 mg/disk
[6] = YPG medium, erythromycin 0.5, G-418 5.0, rifampicin 2.5 mg/disk

SMILES | inhibition of yeast growth in relation to the carbon source [1] | Area of Zone of Inhibition, Control [2, 4] | Area of Zone of Inhibition, PBN [2, 5] | Area of Zone of Inhibition, Control [1, 6] | Area of Zone of Inhibition, PBN (4.8 A260 units) [1, 6] | effect on yeast growth, control sample [1] | effect on yeast growth, PBN-containing sample [1] | other results
Cc1c2oc3c(C)ccc(C(=O)N[C@@H]4C(=O)N[C@H](C(C)C)C(=O)N5CCC[C@H]5C(=O)N(C)CC(=O)N(C)[C@@H](C(C)C)C(=O)O[C@@H]4C)c3nc-2c(C(=O)N[C@@H]2C(=O)N[C@H](C(C)C)C(=O)N3CCC[C@H]3C(=O)N(C)CC(=O)N(C)[C@@H](C(C)C)C(=O)O[C@@H]2C)c(N)c1=O [Actinomycin D] (I: T[dV]P[Sar][NMeV] / II: T[dV]P[Sar][NMeV]; ester I:1-I:C, II:1-II:C; linker I:N-II:N via Actinocin(9to1)) | exhibited inhibition of yeast growth regardless of the carbon source | <3 mm^2 | 452 mm^2 | – | – | – | – | Area of Zone of Inhibition, Control [1, 3]: <3 mm^2; Area of Zone of Inhibition, PBN (4.8 A260 units) [1, 3]: 314 mm^2
C[C@@H]1C[C@@H]([C@H](O)CC2CC(=O)NC(=O)C2)C(=O)[C@@H](C)C1 [Cycloheximide] | – | – | – | – | – | – | – | Area of Zone of Inhibition, Control [2]: <3 mm^2; Area of Zone of Inhibition, PBN [2]: 64 mm^2
CC[C@H]1OC(=O)[C@H](C)[C@@H](O[C@H]2C[C@@](C)(OC)[C@@H](O)[C@H](C)O2)[C@H](C)[C@@H](O[C@@H]2O[C@H](C)C[C@H](N(C)C)[C@H]2O)[C@](C)(O)C[C@@H](C)C(=O)[C@H](C)[C@@H](O)[C@]1(C)O [Erythromycin] | effective in this test system only when glycerol (rather than glucose) is used as the carbon source | – | – | 80 mm^2 | 227 mm^2 | – | – | –
CN[C@@H]1[C@@H](O)[C@@H](O[C@@H]2[C@@H](O)[C@H](O[C@H]3O[C@H]([C@@H](C)O)[C@@H](O)[C@H](O)[C@H]3N)[C@@H](N)C[C@H]2N)OC[C@]1(C)O [G-418] | exhibited inhibition of yeast growth regardless of the carbon source | 20 mm^2 | 346 mm^2 | 113 mm^2 | 490 mm^2 | – | – | –
CO[C@H]1/C=C/O[C@@]2(C)Oc3c(C)c(O)c4c(O)c(c(/C=N/N5CCN(C)CC5)c(O)c4c3C2=O)NC(=O)/C(C)=C\C=C\[C@H](C)[C@H](O)[C@@H](C)[C@@H](O)[C@@H](C)[C@H](OC(C)=O)[C@@H]1C [Rifampicin] | – | <3 mm^2 | 3 mm^2 | <3 mm^2 | 95 mm^2 | – | – | Area of Zone of Inhibition ([1]; PBN 0.0 A260 units): 0 mm^2; Area of Zone of Inhibition ([1]; PBN 1.0 A260 units): 3.0 mm^2; Area of Zone of Inhibition ([1]; PBN 2.0 A260 units): 20.0 mm^2; Area of Zone of Inhibition ([1]; PBN 3.0 A260 units): 38.5 mm^2; Area of Zone of Inhibition ([1]; PBN 4.0 A260 units): 38.5 mm^2; Area of Zone of Inhibition ([1]; PBN 5.0 A260 units): 50.0 mm^2; Area of Zone of Inhibition ([1]; PBN 6.0 A260 units): 64.0 mm^2; Area of Zone of Inhibition ([1]; PBN 7.0 A260 units): 78.5 mm^2; Area of Zone of Inhibition ([1]; PBN 8.0 A260 units): 71.0 mm^2; Area of Zone of Inhibition ([1]; PBN 9.0 A260 units): 78.5 mm^2; Area of Zone of Inhibition ([1]; PBN 10.0 A260 units): 95.0 mm^2
O=C(N[C@H](CO)[C@H](O)c1ccc([N+](=O)[O-])cc1)C(Cl)Cl [chloramphenicol] | – | – | – | – | – | no effect | no effect | –
NC[C@H]1O[C@H](O[C@H]2[C@H](O)[C@@H](O[C@H]3O[C@H](CO)[C@@H](O)[C@H](N)[C@H]3O)[C@H](N)C[C@@H]2N)[C@H](O)[C@@H](O)[C@@H]1O [kanamycin] | – | – | – | – | – | no effect | no effect | –
[H]/N=C(/N)N[C@H]1[C@H](O)[C@@H](O)[C@H](O[C@@H]2O[C@@H](C)[C@](O)(C=O)[C@H]2O[C@@H]2O[C@@H](CO)[C@H](O)[C@@H](O)[C@@H]2NC)[C@@H](N/C(N)=N\[H])[C@@H]1O [streptomycin] | – | – | – | – | – | no effect | no effect | –
